{"source": "paper PMC6934184", "about": "“Selective DNA-PKcs inhibition extends the therapeutic index of localized radiotherapy and chemotherapy” (The Journal of Clinical Investigation, 2019)", "target": "T1, EPHA5 (Homo sapiens, UniProt P54756)", "T1 construct": "purchased Thermo Fisher Scientific (Life Technologies) SelectScreen", "T1 sequence (P54756 25-1037)": "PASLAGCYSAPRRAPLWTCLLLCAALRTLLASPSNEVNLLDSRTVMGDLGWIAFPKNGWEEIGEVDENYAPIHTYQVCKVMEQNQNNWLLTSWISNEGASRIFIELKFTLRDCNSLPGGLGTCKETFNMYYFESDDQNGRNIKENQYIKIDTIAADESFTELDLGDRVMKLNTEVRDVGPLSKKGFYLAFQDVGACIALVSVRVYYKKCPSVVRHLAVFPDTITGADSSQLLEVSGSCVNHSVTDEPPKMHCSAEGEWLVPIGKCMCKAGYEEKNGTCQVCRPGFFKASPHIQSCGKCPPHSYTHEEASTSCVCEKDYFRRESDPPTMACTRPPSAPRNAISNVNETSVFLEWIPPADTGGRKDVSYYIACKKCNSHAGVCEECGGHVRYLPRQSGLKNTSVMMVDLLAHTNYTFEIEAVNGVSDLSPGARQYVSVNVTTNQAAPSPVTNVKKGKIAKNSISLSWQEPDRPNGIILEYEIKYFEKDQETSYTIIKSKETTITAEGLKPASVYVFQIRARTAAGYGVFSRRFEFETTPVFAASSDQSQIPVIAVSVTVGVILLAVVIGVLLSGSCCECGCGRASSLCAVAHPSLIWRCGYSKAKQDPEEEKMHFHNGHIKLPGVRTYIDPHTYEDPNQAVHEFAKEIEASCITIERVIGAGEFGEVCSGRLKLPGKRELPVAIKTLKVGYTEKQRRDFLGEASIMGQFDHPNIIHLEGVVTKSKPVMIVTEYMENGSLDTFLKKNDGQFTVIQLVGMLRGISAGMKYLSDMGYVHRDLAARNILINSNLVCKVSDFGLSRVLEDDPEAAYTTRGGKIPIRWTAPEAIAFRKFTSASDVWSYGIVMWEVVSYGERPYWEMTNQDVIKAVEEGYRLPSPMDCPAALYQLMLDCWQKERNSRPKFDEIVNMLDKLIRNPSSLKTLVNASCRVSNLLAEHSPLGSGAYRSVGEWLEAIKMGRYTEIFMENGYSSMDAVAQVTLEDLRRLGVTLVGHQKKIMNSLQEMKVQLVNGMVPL", "experiment": "SelectScreen Z'LYTE", "assay_type": "biochemical", "summary_of_the_method": "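SelectScreen broad panel; activity (Z'LYTE, Adapta) plus binding formats. ATP: Km app for CSF1R Z'LYTE; 10 for CAMK1 Adapta. Readout = % per kinase.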", "data": [{"smiles": "CN(C(=O)CN1CCOCC1)c1ccc2sc3c(-c4cccc5c(=O)cc(N6CC7CCC(C6)O7)oc45)cccc3c2c1", "note": "[NU5455]", "values": [{"measurement": "inhibition at 1 µM", "result": 5.1, "unit": "%"}]}]}
